Counter-ions that a name gives are not always drawn.

For one series, the system named is ddY strain male mice. Put plainly: Acute toxicity (Minimum Lethal Dose). The format is in vivo. The protocol: The test compound was orally and intraperitoneally administered to ddY strain male mice weighing 20 to 25 g. MLD (Minimum Lethal Dose) was determined by observing the mortality for […] after the administration.
The subject of series [1] is passive Schultz-Dale reaction. Briefly: Effect on passive Schultz-Dale reaction (broncho-dilative activity), sensitized tracheal strips contracted by antigen. The arrangement: species or system male Hartley guinea pigs. Particulars: guinea pig tracheal zig-zag strips, 37° C., antigen egg white albumin 1 μg/ml; read-out: Passive Schultz-Dale reaction IC50 (concentration of 50% relaxation rate). The protocol: d) Effect on passive Schultz-Dale reaction (broncho-dilative activity)
Male Hartley guinea pigs weighing 350 to 500 g were passively sensitized by intraperitoneal injection of rabbit anti-OA serum prepared in advance by the method of Koda et al. [Folia Pharmacol., Japon 66, 237, (1970)]. After 24 hours, the guinea pigs were stunned and exsanguinated, and then tracheae were removed. The zig-zag strips of the tracheae were prepared by the method of Emmerson and Mackay [J. Pharm. Pharmacol., 31, 798, (1979)]. The strips were suspended in Krebs-Henseleit solution at 37° C. under aeration of a mixed gas of 95% oxygen and 5% carbon dioxide, and equilibrated for one hour. Then, antigen (egg white albumin) was introduced in the solution (final concentration; 1 μg/ml), and the contraction was measured by isotonictransducer (TD-112s, made by Nihon Kohden K.K., Japan) and recorded on a recorder (Type 3066, made by Yokogawa-Hokushin Denki, K.K. Japan). After the contraction curves reached a plateau, the test compounds were successively added in order to get cumulative concentration-relaxation curves. The concentration of 50% relaxation rate (IC50) was calculated from the regression line, which was obtained from the cumulative concentration-relaxation curves.

Series [2] concerns platelet activating factor (PAF)-induced mortality. Put plainly: Inhibition effect on platelet activating factor (PAF)-induced mortality. The format is in vivo, male dd mice. The note with it: Mus musculus, po, PAF 40 μg/kg i.v., 3 h, n = 10, control group survival 0-20%, read-out: Survival rate of test compound-administered group. As for the experimental part: e) Inhibition effect on platelet activating factor (PAF)-induced mortality
The experiment was carried out by a minor modification of a known method [Br. J. Pharmacol., 79, 595 (1983)]. Groups each consisting of 10 male dd mice (weighing 28 to 32 g) were used, and 50 or 100 mg/kg of the test compound or a saline (control) was orally administered. One hour after the administration of test compound, 40 μg/kg of PAF (manufactured by Avanti Polar Lipids Co., Ltd.) was intravenously administered. Three hours after PAF injection, the mortality of the animals was observed.

Series [3] concerns carrageenin-induced paw edema. Briefly: Effect on carrageenin-induced paw edema. In kind it is in vivo, male Wistar rats. Particulars: Rattus norvegicus; p.o., 3 hours after carrageenin; read-out: Suppression rate for paw swelling, carrageenin-induced edema. As for the experimental part:
a) Effect on carrageenin-induced paw edema
Male Wistar rats weighing 150 to 160 g (n=3-5) were used in the experiment. After the right hind paw volume was measured with the plethysmograph (TK-101; Unicom Co., Ltd.), the test compound (25, 50 or 100 mg/kg) was orally administered. After one hour, 0.1 ml of 1% carrageenin (λ-carrageenin; PICNIN-A®, Zushi Kagaku Co., Ltd.) was subcutaneously injected into the right hind paw footpad. Three hours after the injection of carrageenin, the right hind paw volume was measured and the swelling rate was determined by the following equation 1. [formula] Vt: the right hind paw volume measured 3 hours after the injection of carrageenin
Vo: the right hind paw volume measured prior to the injection of carrageenin
The suppression rate was calculated by the following equation 2. [formula] Swt: the swelling rate of the group administered with the test compound Swc: the swelling rate of the control group administered with physiological saline solution

In the case of `Cn1cnc2c(=O)n(-c3ccccc3)c3ncccc3c21` [Compound 2, 1-Methyl-5-phenyl-1H-imidazo[4,5-c][1,8]naphthyridin-4(5H)-one], in the series with ddY strain male mice, the “MLD (Minimum Lethal Dose) i.p.” value is on record as more than 100 mg/kg and the “MLD (Minimum Lethal Dose) p.o.” value is on record as more than 300 mg/kg.
For `O=c1c2[nH]cnc2c2cccnc2n1-c1ccccc1` [Compound 3, 5-Phenyl-3H-imidazo[4,5-c][1,8]naphthyridin-4(5H)-one], in the series with ddY strain male mice, the “MLD (Minimum Lethal Dose) i.p.” value is recorded as more than 100 mg/kg and the “MLD (Minimum Lethal Dose) p.o.” value is more than 300 mg/kg. The IC50 in series [1] is 770 nM. Besides, the responders at 100 mg/kg in series [2] came out at 70%.
Consider `Cn1cnc2c3cccnc3n(-c3ccccc3)c(=O)c21` [Compound 4, 3-Methyl-5-phenyl-3H-imidazo[4,5-c][1,8]naphthyridin-4(5H)-one], for which, in the series on ddY strain male mice, the “MLD (Minimum Lethal Dose) i.p.” value is more than 50 mg/kg and the “MLD (Minimum Lethal Dose) p.o.” value was more than 50 mg/kg. Also, in series [1], the IC50 came to 240 nM.
For the compound `CCn1cnc2c(=O)n(-c3ccccc3)c3ncccc3c21` [Compound 5, 1-Ethyl-5-phenyl-1H-imidazo[4,5-c][1,8]naphthyridin-4(5H)-one], the inhibition in vivo at 100 mg/kg in series [3] came to 20.6%. Besides, the IC50 in series [1] is more than 10000 nM. Moreover, the responders at 100 mg/kg in series [2] was 80%.
In the case of `CC(C)n1cnc2c(=O)n(-c3ccccc3)c3ncccc3c21` [Compound 6, 1-Isopropyl-5-phenyl-1H-imidazo[4,5-c][1,8]naphthyridin-4(5H)-one], in series [3], the inhibition in vivo at 100 mg/kg came out at 22%. Besides, the IC50 in series [1] was more than 10000 nM. The responders at 100 mg/kg in series [2] turned out to be 70%.
Turning to `O=c1c2ncn(Cc3ccccc3)c2c2cccnc2n1-c1ccccc1` [Compound 7, 1-Benzyl-5-phenyl-1H-imidazo[4,5-c][1,8]naphthyridin-4(5H)-one], the IC50 in series [1] was more than 10000 nM. Moreover, the responders at 100 mg/kg in series [2] worked out at 90%.
Turning to `CCOC(=O)Cn1cnc2c3cccnc3n(-c3ccccc3)c(=O)c21` [Compound 32, 3-Ethoxycarbonylmethyl-5-phenyl-3H-imidazo[4,5-c][1,8]naphthyridin-4(5H)-one], in the series on ddY strain male mice, the “MLD (Minimum Lethal Dose) i.p.” value is recorded as more than 100 mg/kg and the “MLD (Minimum Lethal Dose) p.o.” value was more than 300 mg/kg. The IC50 in series [1] is 680 nM. Further, the responders at 100 mg/kg in series [2] turned out to be 0%.
For the compound `CCCC(CCC)n1cnc2c3cccnc3n(-c3ccccc3)c(=O)c21` [Compound 35, 3-(1-Propylbutyl)-5-phenyl-3H-imidazo[4,5-c][1,8]naphthyridin-4(5H)-one], in the series on ddY strain male mice, the “MLD (Minimum Lethal Dose) i.p.” value is on record as more than 100 mg/kg and the “MLD (Minimum Lethal Dose) p.o.” value is more than 300 mg/kg. Also, in series [2], the responders at 100 mg/kg was 70%.
The corresponding values for `O=c1c2c(ncn2CC=Cc2ccccc2)c2cccnc2n1-c1ccccc1` [Compound 36, 3-Cinnamyl-5-phenyl-3H-imidazo[4,5-c][1,8]naphthyridin-4(5H)-one] are more than 100 mg/kg, more than 300 mg/kg and 20%.
Consider `O=c1c2c(ncn2C(c2ccccc2)c2ccccc2)c2cccnc2n1-c1ccccc1` [Compound 38, 3-(3-Diphenylmethyl)-5-phenyl-3H-imidazo-[4,5-c][1,8]naphthyridin-4(5H)-one], for which the responders at 100 mg/kg in series [2] came to 30%.
On to `Cc1ccc(C)c(Cn2cnc3c4cccnc4n(-c4ccccc4)c(=O)c32)c1` [Compound 39, 3-(2,5-Dimethylphenyl)methyl-5-phenyl-3H-imidazo[4,5-c][1,8]naphthyridin-4(5H)-one], for which, in series [2], the responders at 100 mg/kg is 0%.
`O=c1c2c(ncn2Cc2ccccc2Cl)c2cccnc2n1-c1ccccc1` [Compound 48, 3-(2-Chlorophenyl)methyl-5-phenyl-3H-imidazo[4,5-c][1,8]naphthyridin-4(5H)-one]: the IC50 in series [1] worked out at 4900 nM. Moreover, the responders at 100 mg/kg in series [2] was found to be 10%.
Consider `O=c1c2c(ncn2Cc2cccc(Br)c2)c2cccnc2n1-c1ccccc1` [Compound 49, 3-(3-Bromophenyl)methyl-5-phenyl-3H-imidazo[4,5-c][1,8]naphthyridin-4(5H)-one], for which the responders at 100 mg/kg in series [2] worked out at 0%.
Consider `COC(=O)c1ccc(Cn2cnc3c4cccnc4n(-c4ccccc4)c(=O)c32)cc1` [Compound 50, 3-(4-Methoxycarbonylphenyl)methyl-5-phenyl-3H-imidazo[4,5-c][1,8]naphthyridin-4(5H)-one], for which the responders at 100 mg/kg in series [2] stood at 0%.
Regarding `O=c1c2c(ncn2CCCO)c2cccnc2n1-c1ccccc1` [Compound 51, 3-(3-Hydroxypropyl)-5-phenyl-3H-imidazo[4,5-c][1,8]naphthyridin-4(5H)-one], in series [2], the responders at 100 mg/kg stood at 80%.
The same measure, in the same setting: the value for `CC(O)Cn1cnc2c3cccnc3n(-c3ccccc3)c(=O)c21` (centres unmarked) [Compound 52, 3-(2-Hydroxypropyl)-5-phenyl-3H-imidazo[4,5-c][1,8]naphthyridin-4(5H)-one] was 100%; that for `O=c1c2c(ncn2Cc2ccco2)c2cccnc2n1-c1ccccc1` [Compound 53, 3-Furfuryl-5-phenyl-3H-imidazo[4,5-c][1,8]naphthyridin-4(5H)-one] was 90%.
With `O=c1c2c(ncn2Cc2cccnc2)c2cccnc2n1-c1ccccc1` [Compound 54, 5-Phenyl-3-(3-pyridyl)methyl-3H-imidazo[4,5-c][1,8]naphthyridin-4(5H)-one], the responders at 100 mg/kg in series [2] is 90%.
For `COc1ccc(-n2c(=O)c3c(ncn3Cc3ccccc3)c3cccnc32)cc1` [Compound 55, 5-(4-Methoxyphenyl)-3-benzyl-3H-imidazo[4,5-c][1,8]naphthyridin-4(5H)-one], in series [2], the responders at 100 mg/kg turned out to be 0%.
On the same count and under the same terms, the same measure for `COc1cccc(-n2c(=O)c3c(ncn3Cc3ccccc3)c3cccnc32)c1` [Compound 56, 5-(3-Methoxyphenyl)-3-benzyl-3H-imidazo[4,5-c][1,8]naphthyridin-4(5H)-one]: 40%; for `Cc1ccc(-n2c(=O)c3c(ncn3Cc3ccccc3)c3cccnc32)cc1` [Compound 57, 5-(4-Methylphenyl)-3-benzyl-3H-imidazo[4,5-c][1,8]naphthyridin-4(5H)-one]: 0%.
For `Cc1nc2c3cccnc3n(-c3ccccc3)c(=O)c2n1Cc1ccccc1` [Compound 60, 2-Methyl-5-phenyl-3-benzyl-3H-imidazo[4,5-c][1,8]-naphthyridin-4(5H)-one], the responders at 100 mg/kg in series [2] worked out at 20%.
The same measure, in the same setting: the value for `O=c1c2c(nc(-c3ccccc3)n2Cc2ccccc2)c2cccnc2n1-c1ccccc1` [Compound 61, 2,5-Diphenyl-3-benzyl-3H-imidazo[4,5-c][1,8]naphthyridin-4(5H)-one] was 10%; that for `COc1ccc(-n2c(=O)c3c(ncn3CC(C)C)c3cccnc32)cc1` [Compound 62, 3-Isobutyl-5-(4-methoxyphenyl)-3H-imidazo[4,5-c][1,8]naphthyridin-4(5H)-one] was 90%.
As to `Cc1ccc(-n2c(=O)c3c(ncn3CC(C)C)c3cccnc32)cc1` [Compound 64, 3-Isobutyl-5-(4-methylphenyl)-3H-imidazo[4,5-c][1,8]naphthyridin-4(5H)-one], the responders at 100 mg/kg in series [2] was 60%.
On to `O=c1c2c(ncn2CCCN2CCOCC2)c2cccnc2n1-c1ccccc1` [Compound 66 Sa, 3-(3-Morpholino)propyl-5-phenyl-3H-imidazo[4,5-c][1,8]naphthyridin-4(5H)-one hydrochloride], for which, in the series with ddY strain male mice, the “MLD (Minimum Lethal Dose) i.p.” value is reported as more than 100 mg/kg and the “MLD (Minimum Lethal Dose) p.o.” value is more than 300 mg/kg. The responders at 100 mg/kg in series [2] is 70%.
Consider `CCN(CC)CCCn1cnc2c3cccnc3n(-c3ccccc3)c(=O)c21` [Compound 67 Sa, 3-(3-Diethylamino)propyl-5-phenyl-3H-imidazo[4,5-c][1,8]naphthyridin-4(5H)-one hydrochloride], for which, in the series with ddY strain male mice, the “MLD (Minimum Lethal Dose) i.p.” value is more than 100 mg/kg and the “MLD (Minimum Lethal Dose) p.o.” value is given as more than 300 mg/kg. The responders at 100 mg/kg in series [2] was determined as 30%.

Source of the values: patent publication US5468756A, “Imidazonaphthyridine derivatives” (Kyowa Hakko Kogyo Co., Ltd., priority 1990, dated 1995).
